How the values were obtained:
[1] = system: glucocorticosteroid receptor; conditions: ratio versus ciclesonide; cited from earlier work
patients with asthma = test: Double-blind, randomized, parallel group clinical study, ciclesonide vs budesonide once daily in the evening for 12 weeks; format: in vivo; conditions: for FEV1 / FVC / PEF / morning PEF: ex smokers, ITT, LSmeans
Text: Another objective was to provide information on the safety and tolerability of ciclesonide.

[2] = cited from earlier work
asthma patients = conditions: ex-smokers, ciclesonide versus budesonide; cited from earlier work
[3] = end of 12 weeks, CIC 200 μg or BUD 400 μg once daily in the evening

SMILES | affinity to the glucocorticosteroid receptor relative to ciclesonide [1] | change in FEV1, subgroup analysis (patients with asthma; (ex-)smokers subgroup, after 12 weeks of treatment) | FEV1 (patients with asthma; [3]) [L] | FVC (patients with asthma; [3]) [L] | PEF (patients with asthma; [3]) [L/min] | morning PEF (patients with asthma; [3]) [L/min] | FEV1 (patients with asthma; start of treatment) [L] | FVC (patients with asthma; start of treatment) [L] | PEF (patients with asthma; start of treatment) [L/min] | morning PEF (patients with asthma; start of treatment) [L/min] | improvement in lung function compared to treatment with budesonide (patients with asthma; smoking asthmatic patients) | concentration of the drug in the lungs ([2]; in vivo) | metabolism by liver oxidases ([2]; in vivo) | plasma half-life ([2]; in vivo) | systemic activity ([2]; in vivo) | absorption after oral administration ([2]; oral) | subgroup analysis of FEV1 (asthma patients)
C[C@]12C=CC(=O)C=C1CC[C@@H]1[C@@H]2[C@@H](O)C[C@@]2(C)[C@H]1C[C@H]1O[C@@H](C3CCCCC3)O[C@]12C(=O)CO (mixture of isomers) [desisobutyryl-ciclesonide, 16α,17-(22R,S)-cyclohexylmethylenedioxy-11β,21-dihydroxypregna-1,4-diene-3,20-dione] | approximately 100 times higher |  |  |  |  |  |  |  |  |  |  |  |  |  |  |  | 
CC(C)C(=O)OCC(=O)[C@@]12O[C@H](C3CCCCC3)O[C@@H]1C[C@H]1[C@@H]3CCC4=CC(=O)C=C[C@]4(C)[C@H]3[C@@H](O)C[C@@]12C [Ciclesonide, [11β,16α(R)]-16,17-[(Cyclohexylmethylene)bis(oxy)]-11-hydroxy-21-(2-methyl-1-oxo-propoxy)pregna-1,4-diene-3,20-dione] |  | statistically significant increases | 2.773 | 3.604 | 391 | 416 | 2.336 | 3.146 | 310 | 370 | superior improvements in lung function | high | very high | low | low | only moderately absorbed | trend for superiority of ciclesonide over budesonide
CCCC1O[C@@H]2C[C@H]3[C@@H]4CCC5=CC(=O)C=C[C@]5(C)[C@H]4[C@@H](O)C[C@]3(C)[C@]2(C(=O)CO)O1 (stereo partly shown) [budesonide] |  |  | 2.602 | 3.385 | 357 | 391 | 2.339 | 3.146 | 310 | 370 |  |  |  |  |  |  | 

— patent publication US20070134165A1 (Altana Pharma AG, priority 2004, published 2007)
